# Laboratory results taken from US20230414510A1 (CRITITECH, INC., priority 2020, published 2023).
# How the values were obtained:
# [1] = Bulk density (not tapped); format: physicochemical
# Text: As used herein, the bulk density (not tapped) of a particle is the ratio of the mass to the volume (including the interparticulate void volume) of an untapped powder sample.
# [2] = Specific surface area (SSA) by BET sorptometry; format: physicochemical; settings: for Surface Area: Table 8
# Experimental: The BET specific surface area test procedure is a compendial method included in both the United States Pharmacopeia and the European Pharmacopeia.
# (§1) Approximately 63 precipitation runs (approximately 500 mg to 10 grams) were conducted on the RC612B precipitation unit, according to examples provided above. Variables modified between each precipitation are detailed in Tables 1-3 below. The precipitates were analyzed by laser diffraction to determine PSD, BET sorptometry to determine SSA, and SEM to determine habit and support PSD and SSA data.
# SSA determination analyses were conducted on a Porous Materials, Inc., Automated BET Sorptometer BET-202A according to manufacturer's instructions.
# [3] = Dissolution in 40% isopropanol 37° C., rotating paddle 50 rpm; format: physicochemical
# Experimental: Exemplary processed products were also used for dissolution for comparison to unprocessed/raw material. Dissolution studies were carried out in 40% isopropanol 37° C. with a rotating paddle at 50 rpm.
# [4] = Particle size distribution (PSD) by laser diffraction, Malvern Mastersizer 3000 Aero S; format: physicochemical; settings: for Mean Geometric Particle size Dv50: Table 8
# Experimental: as §1
# PSD analyses were conducted on a Malvern Mastersizer™ 3000 using the Aero S™ dispersion unit according to manufacturer's instructions.
# [5] = Mass median aerodynamic diameter (MMAD) of aerosol, rotating brush generator and TSI Aerodynamic Particle Sizer 3321; format: physicochemical; settings: for GSD: second figure of the MMAD/GSD cell
# Tapped density = format: physicochemical; settings: for Bulk Tapped Density: Table 8
# Text: As used herein, the tapped density of a particle is obtained by mechanically tapping a graduated cylinder containing the sample until little further volume change is observed.
# [6] = target: T1, TMEM16A (Anoctamin-1, Ano1) (Homo sapiens, UniProt Q5XXA6); settings: Miner et al., 2019; cited from earlier work
# T1 sequence (Q5XXA6 1-986): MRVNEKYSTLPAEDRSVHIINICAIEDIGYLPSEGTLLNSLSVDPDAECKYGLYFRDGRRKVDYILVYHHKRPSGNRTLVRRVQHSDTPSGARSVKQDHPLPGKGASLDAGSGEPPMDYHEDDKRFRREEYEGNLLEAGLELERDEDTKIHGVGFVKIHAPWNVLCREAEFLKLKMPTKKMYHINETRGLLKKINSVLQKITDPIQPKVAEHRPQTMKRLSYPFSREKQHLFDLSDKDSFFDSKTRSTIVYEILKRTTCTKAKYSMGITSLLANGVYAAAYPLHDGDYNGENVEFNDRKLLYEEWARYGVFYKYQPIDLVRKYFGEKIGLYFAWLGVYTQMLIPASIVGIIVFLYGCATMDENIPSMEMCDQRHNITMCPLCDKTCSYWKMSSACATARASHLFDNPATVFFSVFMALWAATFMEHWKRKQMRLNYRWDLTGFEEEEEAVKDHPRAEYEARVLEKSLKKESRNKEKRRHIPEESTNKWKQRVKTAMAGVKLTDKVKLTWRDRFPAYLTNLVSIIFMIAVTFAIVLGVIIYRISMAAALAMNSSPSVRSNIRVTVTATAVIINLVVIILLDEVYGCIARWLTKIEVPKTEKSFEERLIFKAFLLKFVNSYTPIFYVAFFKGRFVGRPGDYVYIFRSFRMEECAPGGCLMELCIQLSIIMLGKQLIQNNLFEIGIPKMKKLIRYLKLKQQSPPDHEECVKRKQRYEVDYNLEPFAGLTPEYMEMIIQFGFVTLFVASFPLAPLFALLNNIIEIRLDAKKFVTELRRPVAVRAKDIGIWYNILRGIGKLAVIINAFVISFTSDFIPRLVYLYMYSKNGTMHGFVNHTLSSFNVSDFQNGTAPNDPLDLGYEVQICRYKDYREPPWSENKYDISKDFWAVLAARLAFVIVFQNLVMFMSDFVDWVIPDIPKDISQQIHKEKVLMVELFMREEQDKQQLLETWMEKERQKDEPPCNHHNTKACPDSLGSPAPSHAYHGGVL
# [7] = intravenous; Andrews et al., 1982; Schweizer et al., 2018; cited from earlier work
# [8] = listed as Milled (micronized) Niclosamide Drug Substance
# [9] = volume distribution, unit not given in Tables 1-3, 6, 7
smiles,measurement,setting,value
"O=C(Nc1ccc([N+](=O)[O-])cc1Cl)c1cc(Cl)ccc1O [Micronized Niclosamide API, niclosamide]",Bulk Density,"[1]; Table 8, listed as Milled (micronized) Niclosamide Drug Substance",0.49 gm/cm3
same,Bulk Density,"[1]; not tapped, Tables 1-3 print no unit",0.486
same,Surface Area,[2]; [8],3.264 m2/gm
same,Dissolution in 40% isopropanol 37C 50 rpm rotating paddle,"[3]; 5 min, listed as Milled (micronized) Niclosamide Drug Substance",2.9%
same,Dissolution in 40% isopropanol 37C 50 rpm rotating paddle,"[3]; 15 min, listed as Milled (micronized) Niclosamide Drug Substance",4.7%
same,Dissolution in 40% isopropanol 37C 50 rpm rotating paddle,"[3]; 30 min, listed as Milled (micronized) Niclosamide Drug Substance",8.4%
same,Dissolution in 40% isopropanol 37C 50 rpm rotating paddle,"[3]; 60 min, listed as Milled (micronized) Niclosamide Drug Substance",12.7%
same,Dissolution in 40% isopropanol 37C 50 rpm rotating paddle,"[3]; 90 min, listed as Milled (micronized) Niclosamide Drug Substance",17.3%
same,Dissolution in 40% isopropanol 37C 50 rpm rotating paddle,"[3]; 120 min, listed as Milled (micronized) Niclosamide Drug Substance",23.3%
same,Mean Geometric Particle size Dv50,[4]; [8],2.97 microns
same,PSD-Mastersizer Dv-10,[4]; [9],0.765
same,PSD-Mastersizer Dv-50,[4]; [9],2.97
same,PSD-Mastersizer Dv-90,[4]; [9],6.39
same,GSD,[5]; [8],1.74
same,Bulk Tapped Density,Tapped density; [8],0.62 gm/cm3
same,Tapped Density,Tapped density; Tables 1-3 print no unit,0.619
"O=C(Nc1ccc([N+](=O)[O-])cc1Cl)c1cc(Cl)ccc1O [Niclosamide Drug Substance, niclosamide]",Bulk Density,[1]; Table 8,0.45 gm/cm3
same,Surface Area,[2],1.359 m2/gm
same,Inhibition of TMEM16A,[6],potent inhibitor
same,Dissolution in 40% isopropanol 37C 50 rpm rotating paddle,[3]; 5 min,1.7%
same,Dissolution in 40% isopropanol 37C 50 rpm rotating paddle,[3]; 15 min,3.8%
same,Dissolution in 40% isopropanol 37C 50 rpm rotating paddle,[3]; 30 min,6.5%
same,Dissolution in 40% isopropanol 37C 50 rpm rotating paddle,[3]; 60 min,11.2%
same,Dissolution in 40% isopropanol 37C 50 rpm rotating paddle,[3]; 90 min,15%
same,Dissolution in 40% isopropanol 37C 50 rpm rotating paddle,[3]; 120 min,20.6%
same,Mean Geometric Particle size Dv50,[4],21.1 microns
same,Toxicity when administered intravenously,[7],substantial toxicity
same,MMAD,[5]; aerosol from rotating brush generator,2.64 microns
same,GSD,[5],1.82
same,Bulk Tapped Density,Tapped density,0.57 gm/cm3
"NCCO.O=C(Nc1ccc([N+](=O)[O-])cc1Cl)c1cc(Cl)ccc1O [Niclosamide ethanolamine, niclosamide ethanolamine]",SSA,"[2]; BET, Tables 4, 5",2.684 m^2/g
